From ChEMBL document CHEMBL4392875, “Rearranged Clerodane Diterpenoids from the Stems of Tinospora baenzigeri” (2019)

system: HepG2; test: Hepatoprotective activity in human HepG2 cells assessed as inhibition of APAP-induced cell damage at 10 uM by MTT assay relative to control; format: functional

Question: How did the inhibition at 10 µM turn out when `COc1cc(C[C@H]2CO[C@H](c3ccc(O)c(OC)c3)[C@H]2CO)ccc1O` [LARICIRESINOL] was run?
Answer: -4.3%

Question: How did the inhibition at 10 µM turn out when `C[C@@]12C[C@@H](c3ccoc3)OC(=O)C1=CC[C@]1(C)[C@H]2C[C@H]2COC(=O)[C@]21OC1O[C@H](CO)[C@@H](O)[C@H](O)[C@H]1O` (stereo partly specified) was run?
Answer: 3.8%

Question: For `COC(=O)c1cc(OC)c2c(c1-c1c(CO)cc(OC)c3c1OCO3)OCO2` [BICYCLOL], which inhibition at 10 µM is on record?
Answer: 15.7%

Question: `C[C@@]12C[C@H](c3ccoc3)OC(=O)C1=CC[C@]1(C)[C@H]2C[C@H]2COC(=O)[C@]21O` was tested. Which inhibition at 10 µM did it give?
Answer: 6.6%

Question: For `COc1cc(/C=C/C(=O)NCCc2ccc(O)cc2)ccc1O` [N-TRANS-FERULOYL TYRAMINE], which inhibition at 10 µM is on record?
Answer: 3.5%

Question: `C[C@@]12C[C@H](C3=CC(=O)O[C@@H]3O)OC(=O)C1=CC[C@]1(C)[C@H]2C[C@H]2COC(=O)[C@]21O` was tested. Which inhibition at 10 µM did it give?
Answer: 4.9%

Question: Which inhibition at 10 µM does the source give for `COc1cc([C@@H]2OC[C@@H]3C(=O)OC[C@@H]32)cc(OC)c1O` here?
Answer: 17%

Question: `C[C@@]12C[C@@H](c3ccoc3)OC(=O)C1=CC[C@]1(C)[C@H]2C[C@H]2COC(=O)[C@]21O` was tested. Which inhibition at 10 µM did it give?
Answer: 6.4%

Question: With `C[C@@H](O)/C=C/C1[C@]2(C)CO[C@@]1(C)C[C@@H](O)C2` (stereo partly specified) as the molecule, how does the inhibition at 10 µM read?
Answer: 19.2%

Question: With `O=C(/C=C/c1ccc(O)cc1)NCCc1ccc(O)cc1` [N-P-COUMAROYL TYRAMINE] as the molecule, how does the inhibition at 10 µM read?
Answer: 39%

Question: How did the inhibition at 10 µM turn out when `COC(=O)[C@H]1O[C@H]2C[C@]1(C)C(CCCO[C@@H]1O[C@H](CO)[C@@H](O)[C@H](O)[C@H]1O)[C@]1(C)C[C@@H](c3ccoc3)OC(=O)[C@H]21` (stereo partly specified) was run?
Answer: -24.9%
